The text below walks through data of ChEMBL document CHEMBL4842357, “Discovery of Novel Apigenin-Piperazine Hybrids as Potent and Selective Poly (ADP-Ribose) Polymerase-1 (PARP-1) Inhibitors for the Treatment of Cancer” (J Med Chem, 2021).

Chain of Poly [ADP-ribose] polymerase 2 (Q9UGN5 whole entry): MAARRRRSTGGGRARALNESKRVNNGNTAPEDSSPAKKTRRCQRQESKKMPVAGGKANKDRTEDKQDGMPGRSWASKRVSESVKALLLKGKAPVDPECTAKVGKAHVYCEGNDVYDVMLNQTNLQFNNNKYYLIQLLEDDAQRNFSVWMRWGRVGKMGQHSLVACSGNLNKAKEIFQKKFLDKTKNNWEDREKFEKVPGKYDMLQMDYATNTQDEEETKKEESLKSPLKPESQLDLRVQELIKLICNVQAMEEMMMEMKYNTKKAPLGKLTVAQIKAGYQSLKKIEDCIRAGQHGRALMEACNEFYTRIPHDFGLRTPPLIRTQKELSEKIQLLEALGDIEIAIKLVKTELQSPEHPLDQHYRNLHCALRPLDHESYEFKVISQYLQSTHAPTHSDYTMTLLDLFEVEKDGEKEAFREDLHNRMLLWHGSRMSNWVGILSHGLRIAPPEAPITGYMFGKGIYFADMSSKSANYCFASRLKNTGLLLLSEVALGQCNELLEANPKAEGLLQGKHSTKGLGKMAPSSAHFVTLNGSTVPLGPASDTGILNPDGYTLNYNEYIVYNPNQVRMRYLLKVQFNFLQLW
Chain of Poly [ADP-ribose] polymerase 1 (P09874 whole entry): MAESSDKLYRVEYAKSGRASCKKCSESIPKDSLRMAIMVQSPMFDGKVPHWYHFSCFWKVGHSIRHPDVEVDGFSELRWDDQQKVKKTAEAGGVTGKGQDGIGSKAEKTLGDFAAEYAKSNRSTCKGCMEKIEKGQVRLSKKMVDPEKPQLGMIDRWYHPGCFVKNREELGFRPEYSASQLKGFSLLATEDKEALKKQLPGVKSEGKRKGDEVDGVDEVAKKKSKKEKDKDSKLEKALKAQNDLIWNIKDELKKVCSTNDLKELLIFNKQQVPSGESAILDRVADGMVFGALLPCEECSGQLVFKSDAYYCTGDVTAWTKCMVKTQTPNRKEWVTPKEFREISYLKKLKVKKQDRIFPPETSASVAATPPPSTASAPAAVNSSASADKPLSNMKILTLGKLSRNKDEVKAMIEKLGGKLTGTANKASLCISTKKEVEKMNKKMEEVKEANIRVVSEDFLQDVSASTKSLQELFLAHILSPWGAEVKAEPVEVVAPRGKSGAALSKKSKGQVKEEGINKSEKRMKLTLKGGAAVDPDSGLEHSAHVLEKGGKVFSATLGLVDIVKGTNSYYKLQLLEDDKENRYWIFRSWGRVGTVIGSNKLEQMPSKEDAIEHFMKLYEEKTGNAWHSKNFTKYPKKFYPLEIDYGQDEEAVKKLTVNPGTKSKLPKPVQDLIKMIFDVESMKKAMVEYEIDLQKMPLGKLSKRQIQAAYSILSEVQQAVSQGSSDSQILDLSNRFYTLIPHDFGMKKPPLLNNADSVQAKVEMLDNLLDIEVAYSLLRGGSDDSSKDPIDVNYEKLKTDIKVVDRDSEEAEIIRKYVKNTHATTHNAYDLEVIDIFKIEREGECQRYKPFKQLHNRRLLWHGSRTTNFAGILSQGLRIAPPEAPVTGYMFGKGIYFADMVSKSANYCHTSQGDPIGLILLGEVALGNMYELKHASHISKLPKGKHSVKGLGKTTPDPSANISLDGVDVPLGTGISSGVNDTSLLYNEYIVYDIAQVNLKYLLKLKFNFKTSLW

One assay addresses Poly [ADP-ribose] polymerase 2 (Homo sapiens, UniProt Q9UGN5). Description: Inhibition of recombinant human full-length PARP-2 using biotinylated substrate.
For `CC(=O)N1CCN(Cc2c(O)cc(O)c3c(=O)cc(-c4ccc(O)cc4)oc23)CC1`, the IC50 (commonly the concentration that inhibits the measured activity by half) came to 3000 nM.
`COc1ccc(C(=O)N2CCN(Cc3c(O)cc(O)c4c(=O)cc(-c5ccc(O)cc5)oc34)CC2)cc1`: the IC50 is 2500 nM.
The same measure, in the same setting: in the case of `O=c1cc(-c2ccc(O)cc2)oc2c(CN3CCN(Cc4ccsc4)CC3)c(O)cc(O)c12` it was 2800 nM; in that of `O=C(c1ccccn1)N1CCN(Cc2c(O)cc(O)c3c(=O)cc(-c4ccc(O)cc4)oc23)CC1`, 1300 nM.
Take `O=c1cc(-c2cccc(-c3c(O)cc(O)c4c(=O)cc(-c5ccc(O)cc5)oc34)c2)oc2cc(O)cc(O)c12`: the IC50 came out at 10300 nM.
On to `O=c1cc(-c2cccc(-c3c(O)cc(O)c4c(=O)cc(-c5cccs5)oc34)c2)oc2cc(O)cc(O)c12`, for which the IC50 came out at 11100 nM.
With `O=c1cc(-c2ccc(O)cc2)oc2c(CN3CCN(c4ccccc4)CC3)c(O)cc(O)c12`, the IC50 is 2100 nM.
With `COc1cc(CN2CCN(Cc3c(O)cc(O)c4c(=O)cc(-c5ccc(O)cc5)oc34)CC2)cc(OC)c1`, the IC50 came out at 1700 nM.
With `O=c1cc(-c2cccc(-c3c(O)cc(O)c4c(=O)cc(-c5ccc(C(F)(F)F)cc5)oc34)c2)oc2cc(O)cc(O)c12`, the IC50 came to 26400 nM.
The same measure, in the same setting: in the case of `O=c1cc(-c2cccc(-c3c(O)cc(O)c4c(=O)cc(-c5ccc(F)cc5)oc34)c2)oc2cc(O)cc(O)c12` it was 8500 nM; in that of `O=c1cc(-c2ccc(O)cc2)oc2c(CN3CCN(Cc4ccc(Cl)cc4)CC3)c(O)cc(O)c12`, 1800 nM; in that of `COC(=O)C1CCN(Cc2c(O)cc(O)c3c(=O)cc(-c4ccc(O)cc4)oc23)CC1`, 6700 nM.
On to `O=c1cc(-c2ccc(O)cc2)oc2c(CN3CCN(Cc4ccc(C(F)(F)F)cc4)CC3)c(O)cc(O)c12`, for which the IC50 turned out to be 1900 nM.
As to `COc1ccc(CN2CCN(Cc3c(O)cc(O)c4c(=O)cc(-c5ccc(O)cc5)oc34)CC2)c(OC)c1OC`, the IC50 was 1200 nM.
`O=c1cc(-c2ccc(O)cc2)oc2c(CN3CCN(c4ccc(O)cc4)CC3)c(O)cc(O)c12`: the IC50 worked out at 2900 nM.
With `O=c1cc(-c2ccc(O)cc2)oc2c(CN3CCN(CC4CCCCC4)CC3)c(O)cc(O)c12`, the IC50 worked out at 3200 nM.
For the compound `O=c1cc(-c2ccc(O)cc2)oc2c(CN3CCN(c4ccc(Cl)cc4)CC3)c(O)cc(O)c12`, the IC50 was 3700 nM.
Turning to `COc1ccc(CN2CCN(Cc3c(O)cc(O)c4c(=O)cc(-c5ccc(O)cc5)oc34)CC2)cc1`, the IC50 turned out to be 2000 nM.

The species entered for another assay is Homo sapiens. Description: Selectivity index, ratio of IC50 for inhibition of recombinant human full-length PARP-2 to IC50 for inhibition of recombinant human full-length PARP-1.
For `CC(=O)N1CCN(Cc2c(O)cc(O)c3c(=O)cc(-c4ccc(O)cc4)oc23)CC1`, the Ratio IC50 worked out at 70.4.
Still for that read-out and setting: in the case of `COc1ccc(C(=O)N2CCN(Cc3c(O)cc(O)c4c(=O)cc(-c5ccc(O)cc5)oc34)CC2)cc1` it was 57.6; in that of `O=c1cc(-c2ccc(O)cc2)oc2c(CN3CCN(Cc4ccsc4)CC3)c(O)cc(O)c12`, 56.2; in that of `O=C(c1ccccn1)N1CCN(Cc2c(O)cc(O)c3c(=O)cc(-c4ccc(O)cc4)oc23)CC1`, 59.6.
On to `O=c1cc(-c2cccc(-c3c(O)cc(O)c4c(=O)cc(-c5ccc(O)cc5)oc34)c2)oc2cc(O)cc(O)c12`, for which the Ratio IC50 came to 52.5.
For `O=c1cc(-c2cccc(-c3c(O)cc(O)c4c(=O)cc(-c5cccs5)oc34)c2)oc2cc(O)cc(O)c12`, the Ratio IC50 came out at 55.
Regarding `O=c1cc(-c2ccc(O)cc2)oc2c(CN3CCN(c4ccccc4)CC3)c(O)cc(O)c12`, the Ratio IC50 was determined as 59.
As for `COc1cc(CN2CCN(Cc3c(O)cc(O)c4c(=O)cc(-c5ccc(O)cc5)oc34)CC2)cc(OC)c1`, the Ratio IC50 stood at 62.5.
Consider `O=c1cc(-c2cccc(-c3c(O)cc(O)c4c(=O)cc(-c5ccc(C(F)(F)F)cc5)oc34)c2)oc2cc(O)cc(O)c12`, for which the Ratio IC50 worked out at 52.6.
On the same count and under the same terms, under `O=c1cc(-c2cccc(-c3c(O)cc(O)c4c(=O)cc(-c5ccc(F)cc5)oc34)c2)oc2cc(O)cc(O)c12` stands 47.4; under `O=c1cc(-c2ccc(O)cc2)oc2c(CN3CCN(Cc4ccc(Cl)cc4)CC3)c(O)cc(O)c12`, 57.
As to `COC(=O)C1CCN(Cc2c(O)cc(O)c3c(=O)cc(-c4ccc(O)cc4)oc23)CC1`, the Ratio IC50 came to 68.6.
On to `O=c1cc(-c2ccc(O)cc2)oc2c(CN3CCN(Cc4ccc(C(F)(F)F)cc4)CC3)c(O)cc(O)c12`, for which the Ratio IC50 amounted to 63.7.
Regarding `COc1ccc(CN2CCN(Cc3c(O)cc(O)c4c(=O)cc(-c5ccc(O)cc5)oc34)CC2)c(OC)c1OC`, the Ratio IC50 was determined as 55.5.
With `O=c1cc(-c2ccc(O)cc2)oc2c(CN3CCN(c4ccc(O)cc4)CC3)c(O)cc(O)c12`, the Ratio IC50 came to 73.
Regarding `O=c1cc(-c2ccc(O)cc2)oc2c(CN3CCN(CC4CCCCC4)CC3)c(O)cc(O)c12`, the Ratio IC50 turned out to be 54.9.
On to `O=c1cc(-c2ccc(O)cc2)oc2c(CN3CCN(c4ccc(Cl)cc4)CC3)c(O)cc(O)c12`, for which the Ratio IC50 is 60.8.
Take `COc1ccc(CN2CCN(Cc3c(O)cc(O)c4c(=O)cc(-c5ccc(O)cc5)oc34)CC2)cc1`: the Ratio IC50 is 56.5.

Another assay has as its target Poly [ADP-ribose] polymerase 1 (Homo sapiens, UniProt P09874). As to the kind of experiment: Inhibition of recombinant human full-length PARP-1 using biotinylated substrate.
As to `CC(=O)N1CCN(Cc2c(O)cc(O)c3c(=O)cc(-c4ccc(O)cc4)oc23)CC1`, the 50% inhibitory concentration (IC50) was found to be 42.6 nM.
As for `COc1ccc(C(=O)N2CCN(Cc3c(O)cc(O)c4c(=O)cc(-c5ccc(O)cc5)oc34)CC2)cc1`, the IC50 is 43.4 nM.
Regarding `O=c1cc(-c2ccc(O)cc2)oc2c(CN3CCN(Cc4ccsc4)CC3)c(O)cc(O)c12`, the IC50 was 49.8 nM.
Turning to `O=C(c1ccccn1)N1CCN(Cc2c(O)cc(O)c3c(=O)cc(-c4ccc(O)cc4)oc23)CC1`, the IC50 turned out to be 21.8 nM.
As to `O=c1cc(-c2cccc(-c3c(O)cc(O)c4c(=O)cc(-c5ccc(O)cc5)oc34)c2)oc2cc(O)cc(O)c12`, the IC50 came out at 196 nM.
The same measure, in the same setting: under `O=c1cc(-c2cccc(-c3c(O)cc(O)c4c(=O)cc(-c5cccs5)oc34)c2)oc2cc(O)cc(O)c12` stands 202 nM.
Regarding `O=c1cc(-c2ccc(O)cc2)oc2c(CN3CCN(c4ccccc4)CC3)c(O)cc(O)c12`, the IC50 stood at 35.6 nM.
`COc1cc(CN2CCN(Cc3c(O)cc(O)c4c(=O)cc(-c5ccc(O)cc5)oc34)CC2)cc(OC)c1`: the IC50 was determined as 27.2 nM.
Regarding `O=c1cc(-c2cccc(-c3c(O)cc(O)c4c(=O)cc(-c5ccc(C(F)(F)F)cc5)oc34)c2)oc2cc(O)cc(O)c12`, the IC50 stood at 502 nM.
For the compound `O=c1cc(-c2cccc(-c3c(O)cc(O)c4c(=O)cc(-c5ccc(F)cc5)oc34)c2)oc2cc(O)cc(O)c12`, the IC50 came out at 179 nM.
The same measure, in the same setting: under `O=c1cc(-c2ccc(O)cc2)oc2c(CN3CCN(Cc4ccc(Cl)cc4)CC3)c(O)cc(O)c12` stands 31.6 nM.
On to `COC(=O)C1CCN(Cc2c(O)cc(O)c3c(=O)cc(-c4ccc(O)cc4)oc23)CC1`, for which the IC50 was found to be 97.6 nM.
Turning to `O=c1cc(-c2ccc(O)cc2)oc2c(CN3CCN(Cc4ccc(C(F)(F)F)cc4)CC3)c(O)cc(O)c12`, the IC50 was 29.8 nM.
Regarding `COc1ccc(CN2CCN(Cc3c(O)cc(O)c4c(=O)cc(-c5ccc(O)cc5)oc34)CC2)c(OC)c1OC`, the IC50 was 21.6 nM.
`O=c1cc(-c2ccc(O)cc2)oc2c(CN3CCN(c4ccc(O)cc4)CC3)c(O)cc(O)c12`: the IC50 is 39.7 nM.
Take `O=c1cc(-c2ccc(O)cc2)oc2c(CN3CCN(CC4CCCCC4)CC3)c(O)cc(O)c12`: the IC50 stood at 58.3 nM.
As for `O=c1cc(-c2ccc(O)cc2)oc2c(CN3CCN(c4ccc(Cl)cc4)CC3)c(O)cc(O)c12`, the IC50 stood at 60.8 nM.
`COc1ccc(CN2CCN(Cc3c(O)cc(O)c4c(=O)cc(-c5ccc(O)cc5)oc34)CC2)cc1`: the IC50 is 35.4 nM.
